{"source": "patent US20080260722A1", "about": "“Method for High Efficiency Survival/Proliferation of Human Embyonic Stem Cells and Human Embryo Survival in Culture” (The Johns Hopkins University Johns Hopkins Technology …, priority 2004, published 2008)", "molecules": {"B1": {"name": "neurotrophin 3 (protein, UniProt P20783 139-257, looked up)", "Neurotrophin-3": "YAEHKSHRGEYSVCDSESLWVTDKSSAIDIRGHQVTVLGEIKTGNSPVKQYFYETRCKEARPVKNGCRGIDDKHWNSQCKTSQTYVRALTSENNKLVGWRWIRIDTSCVCALSRKIGRT", "notes": "TRK ligand, neurotrophin purchased from Peprotech"}, "B2": {"name": "brain derived neurotrophic factor (protein, UniProt P23560 19-247, looked up)", "Neurotrophic factor BDNF …": "APMKEANIRGQGGLAYPGVRTHGTLESVNGPKAGSRGLTSLADTFEHVIEELLDEDQKVRPNEENNKDADLYTSRVMLSSQVPLEPPLLFLLEEYKNYLDAANMSMRVRRHSDPARRGELSVCDSISEWVTAADKKTAVDMSGGTVTVLEKVPVSKGQLKQYFYETKCNPMGYTKEGCRGIDKRHWNSQCRTTQSYVRALTMDSKKRIGWRFIRIDTSCVCTLTIKRGR", "notes": "as for B1"}, "B3": {"name": "neurotrophin 4 (protein, UniProt P34130 81-210, looked up)", "Neurotrophin-4": "GVSETAPASRRGELAVCDAVSGWVTDRRTAVDLRGREVEVLGEVPAAGGSPLRQYFFETRCKADNAEEGGPGAGGGGCRGVDRRHWVSECKAKQSYVRALTADAQGRVGWRWIRIDTACVCTLLSRTGRA", "notes": "as for B1"}}, "key": {"hES cells [1]": {"system": "hES cells", "experiment": "low-density survival assay in MEF-CM with TRK inhibitors", "assay_type": "cell-based, human", "conditions": "increasing inhibitor concentrations, versus DMSO vehicle", "quoted_text": "TRK signaling and survival can be blocked by pharmacological inhibition; TRK inhibitors were added to hES cells plated with MEF-CM in the low-density survival assay; hES cells were exposed to increasing concentrations of a GW441756, K252A, or vehicle (DMSO).\nHuman ES cell lines H1 and H9 were cultured as described by Thornson and colleagues^15 in high glucose DMEM supplemented with L-glutanine, non-essential amino acids, serum replacement (Invitrogen) and 4 ng/ml basic Fibroblast growth factor (Invitrogen). Mouse embryo fibroblasts (MEFs) (Specialty Media). were plated at 5-7×10^6 cells/ml. To prepare single cell suspensions of hES cells, the cells were washed twice with PBS, then incubated in 0.05% trypsin/EDTA (InVitrogen) for 5 minutes at 37° C. The cells were triturated with a 5-ml pipette until a single cell suspension was obtained. […] For low-density survival assays, trypsinized cells were counted using a hemocytometer and 500 cells were plated in each well of 96-well plate containing MEFs or coated with Matrigel (BD Biosciences). […] Individual hES cells or hES cell colonies were counted manually on an inverted microscope. […]\nTo test this prediction, hES cell survival was measured using the low density survival assay in the presence or absence of two different TRK inhibitors, GW441756 and K252a^17-19."}, "TRKs": {"system": "TRKs", "conditions": "cited from earlier work"}, "hES cells [2]": {"system": "hES cells", "experiment": "low-density survival assay in NTs without bFGF with pathway inhibitors", "assay_type": "cell-based, human", "conditions": "single cells at low density in NTs, no bFGF, increasing inhibitor concentrations", "protocol": "FIG. 8. PI-3K activity is required for hES cell survival; a. […] NTs have differential effects on AKT and MEK1/2 phosphorylation; hES cells were grown in the presence or absence of NTs (but without bFGF) and cell lysates probed with antibodies to phospho-AKT or phospho-MEK1/2; in the absence of NTs, a weak phospho-AKT band is observed; upon stimulation of hES cells with NTs a stronger band is observed; the intensity of the bands were compared to the total level of AKT and to a loading control (Beta-tubulin); in contrast no change in the level of phospho-MEK1/2 was observed by comparison with the controls.\nHuman ES cell lines H1 and H9 were cultured as described by Thornson and colleagues^15 in high glucose DMEM supplemented with L-glutanine, non-essential amino acids, serum replacement (Invitrogen) and 4 ng/ml basic Fibroblast growth factor (Invitrogen). Mouse embryo fibroblasts (MEFs) (Specialty Media). were plated at 5-7×10^6 cells/ml. To prepare single cell suspensions of hES cells, the cells were washed twice with PBS, then incubated in 0.05% trypsin/EDTA (InVitrogen) for 5 minutes at 37° C. […] For low-density survival assays, trypsinized cells were counted using a hemocytometer and 500 cells were plated in each well of 96-well plate containing MEFs or coated with Matrigel (BD Biosciences). […] Individual hES cells or hES cell colonies were counted manually on an inverted microscope. […]"}, "hES cells [3]": {"system": "hES cells", "experiment": "low-density survival assay with individual neurotrophins on MEFs or Matrigel", "assay_type": "cell-based, human", "conditions": "500 cells/well on MEFs or Matrigel, 0.01-100 ng/ml, 4-5 days", "excerpt": "FIG. 4. Individual neurotrophins have dose-dependent effects on hES cell survival; a. Effect of NTs on hES cell survival at low-density on MEFs. hES cells were trypsinized and plated at low density (500 cells per well) on MEFs in 96-well plates in the presence of NT3, BDNF, NT4, NGF or hES medium lacking added growth factor; After 4-5 days, the colonies (comprised of approximately 7-11 cells) were fixed and stained for alkaline phosphatase; b. […] NTs (BDNF, NT4 and NT3) also have statistically significant differences between concentrations of 0.01-100 ng/ml at p<0.05; c. Phase contrast images (at 4×) of morphology of hES cell colonies observed on MEFs or Matrigel™ in the low-density survival assay.\nHuman ES cell lines H1 and H9 were cultured as described by Thornson and colleagues^15 in high glucose DMEM supplemented with L-glutanine, non-essential amino acids, serum replacement (Invitrogen) and 4 ng/ml basic Fibroblast growth factor (Invitrogen). Mouse embryo fibroblasts (MEFs) (Specialty Media). were plated at 5-7×10^6 cells/ml. To prepare single cell suspensions of hES cells, the cells were washed twice with PBS, then incubated in 0.05% trypsin/EDTA (InVitrogen) for 5 minutes at 37° C. The cells were triturated with a 5-ml pipette until a single cell suspension was obtained. Trypsin inhibitor (InVitrogen) was added and the cell suspension filtered through a […] (Fisher Scientific) to remove clumps and MEFs. For clonal survival assays, single hES cells were diluted to clonal density and plated into a well of a 96-well plate containing MEFs. For low-density survival assays, trypsinized cells were counted using a hemocytometer and 500 cells were plated in each well of 96-well plate containing MEFs or coated with Matrigel (BD Biosciences). To visualize hES colonies, cultures were fixed in 4% para-formaldehyde in PBS for 30 minutes, washed once in PBS, once in distilled H2O, then stained for alkaline phosphatase activity as described previously^25. Individual hES cells or hES cell colonies were counted manually on an inverted microscope. NGF, BDNF, NT3 and NT4 were purchased from Peprotech. The TRK inhibitors GW441756 (Sigma) and K252A (Calbiochem), PI-3K inhibitor, MAPK inhibitors, STAT3 inhibitor and control peptides (all from Calbiochem) were prepared according to the manufacturer's instructions. For the antibody blocking experiments, antibodies to NGF, NT3, NT4 and BDNF as well as a control antibody were obtained from Promega. Antibodies were added to culture medium at a concentration of 20 ug/ml. Following culture, the cultures were fixed and stained for alkaline phosphatase activity as described above. Each experiment consisted of at least four replicates per treatment and each experiment was repeated at least three times. […]"}}}
{"molecule": "Cn1cc(/C=C2\\C(=O)Nc3cccnc32)c2ccccc21", "note": "[GW441756]", "values": [{"measurement": "effect on hES cell survival", "setting": "hES cells [1]", "result": "statistically-significant and dose-dependent effects on hES cell survival"}, {"measurement": "selectivity for TRKs over many kinases including c-Src, VEGFR2, Raf and CDK1", "setting": "TRKs", "result": "10-fold, or in some cases 100-fold"}]}
{"molecule": "COC(=O)[C@@]1(O)C[C@H]2O[C@]1(C)n1c3ccccc3c3c4c(c5c6ccccc6n2c5c31)C(=O)NC4", "note": "[K252a]", "values": [{"measurement": "effect on hES cell survival", "setting": "hES cells [1]", "result": "statistically-significant and dose-dependent effects on hES cell survival"}]}
{"molecule": "COc1cccc(-c2cc(=O)c3ccccc3o2)c1N", "note": "[PD98059]", "values": [{"measurement": "effect on hES cell survival", "setting": "hES cells [2]", "result": "no effect on hES cell survival"}]}
{"molecule": "CS/C(N)=C(C#N)/C(C#N)=C(\\N)SC", "note": "[UO124]", "values": [{"measurement": "effect on hES cell survival", "setting": "hES cells [2]", "result": "no effect on hES cell survival"}]}
{"molecule": "nerve growth factors [NGF]", "values": [{"measurement": "effect on hES cell survival", "setting": "hES cells [3]", "result": "slight increase in hES cell survival"}]}
{"molecule": "B1", "values": [{"measurement": "effect on hES cell survival", "setting": "hES cells [3]", "result": "potent, dose dependent effects on hES cell survival"}]}
{"molecule": "B2", "values": [{"measurement": "effect on hES cell survival", "setting": "hES cells [3]", "result": "potent, dose dependent effects on hES cell survival"}]}
{"molecule": "B3", "values": [{"measurement": "effect on hES cell survival", "setting": "hES cells [3]", "result": "potent, dose dependent effects on hES cell survival"}]}
